Results from patent publication US6447768B1, “Methods of gene therapy with a DNA sequence encoding NOS” (priority 1998, dated 2002).

Tested on: Human foreskin microvascular endothelial cells (MVEC)
Assay: Angiogenesis assay: capillary-like tube formation of MVEC in fibrin matrix
Format: cell-based
Details: for formation of capillary-like structures in fibrin matrices: uninfected MVEC, in combination with TNF-α
Description: Human foreskin microvascular endothelial cells (MVEC) were grown to confluency in M199 medium supplemented with 10% human serum (HS), 10% new-born calf serum (NBCS), penicillin and streptomycin and infected with 3.10_ pfu/ml Ad.IG.CMV.eNOS for 1 hour in M199 +2% NBCS. Medium was refreshed and cells were incubated overnight in M199+10% HS+10% NBCS.
Angiogenesis was analysed as described in Koolwijk et al. J. Cell Biol. 132 p1177-1188 (1996). Briefly, highly confluent MVEC were detached, seeded in a 1.25:1 split ratio on human fibrin matrices as cultures consisting either of uninfected cells, 100% infected cells or mixed cultures consisting of 10% infected/90% uninfected cells and cultured in M199 medium supplemented with 10% human serum (HS), 10% new-born calf serum (NBCS), penicillin and streptomycin.
Invading cells and the formation of tubular structures of endothelial cells in the three-dimensional fibrin matrix were analysed by phase contrast microscopy. After 7 days the total length of the tube-like structure of six randomly chosen microscopic fields per well (7.3 mm^2/field=43.8% of the total well) was measured using a Nikon FXA microscope equipped with a monochrome CCD camera (MX5) connected to a computer with Optimas image analysis software, and expressed as total tube length/cm^2.
For the angiogenesis experiments incubations are performed with cultures of uninfected cells, 10% infected MVEC and of 100% infected MVEC.
All incubations have been performed in the presence of 1 ng/ml TNF-α. Specific conditions tested in the presence and absence of virus were control, +bFGF: 5 ng/ml, +VEGF: 25 ng/ml, +bFGF+L-NAME: 5 ng/ml, 100 iM

Molecule | formation of capillary-like structures in fibrin matrices | effect on tube formation (100 μM, bFGF+TNF-α stimulated cultures, with and without NOS infected cells)
VEGF | formed capillary-like structures | 
COC(=O)[C@@H](N)CCCNC(=N)N[N+](=O)[O-] [L-NAME] |  | small reduction of tube formation
bFGF: basic Fibroblast Growth Factor | formed capillary-like structures | 
